{"source": "patent CN104630230A", "about": "“一组特异识别大田软海绵酸的核酸适配体” (priority 2015, dated 2015)", "experiment_in_all_cases": "Affinity analysis (GO separation, FAM fluorescence, saturation binding)", "key": {"[1]": {"target": "5'-FAM-labelled single-stranded DNA aptamer OA-27 (80 nt) (核酸适配体 OA-27)"}, "[2]": {"target": "5'-FAM-labelled single-stranded DNA aptamer OA27-1 (truncated OA-27, random region 40 nt) (核酸适配体 OA27-1)", "conditions": "OA27-1, saturation binding curve (Fig. 4B)"}, "[3]": {"target": "5'-FAM-labelled ssDNA OA-08 (80 nt)", "conditions": "1 μM OA, 5-200 nM ssDNA, 2 h in the dark, ex 490 nm / em 520 nm"}, "[4]": {"target": "5'-FAM-labelled ssDNA OA-17 (80 nt)", "conditions": "1 μM OA, 5-200 nM ssDNA, 2 h in the dark, ex 490 nm / em 520 nm"}, "[5]": {"target": "5'-FAM-labelled ssDNA OA-22 (80 nt)", "conditions": "1 μM OA, 5-200 nM ssDNA, 2 h in the dark, ex 490 nm / em 520 nm"}}, "note": "Where two headings read alike, the source gives them in different places."}
{"smiles": "C=C1[C@@H](O)[C@@H]2O[C@]3(CC[C@H](/C=C/[C@@H](C)[C@@H]4CC(C)=C[C@@]5(O[C@H](C[C@@](C)(O)C(=O)O)CC[C@H]5O)O4)O3)CC[C@H]2O[C@@H]1[C@@H](O)C[C@H](C)[C@H]1O[C@@]2(CCCCO2)CC[C@H]1C", "note": "[OA, Okadaic acid]", "values": [{"measurement": "Kd", "setting": "[1]; 1 μM OA, 5-200 nM ssDNA, 2 h in the dark, GO separation, ex 490 nm / em 520 nm, read-out: Kd", "value": "< 100", "unit": "nM"}, {"measurement": "Kd", "setting": "[1]; in words, OA-27 compared with the other ssDNA sequences of the 8 tested (Fig. 4A)", "value": "其Kd值最小"}, {"measurement": "Kd", "setting": "[2]", "value": 39, "unit": "nM"}, {"measurement": "Kd", "setting": "[3]", "value": "< 100", "unit": "nM"}, {"measurement": "Kd", "setting": "[4]", "value": "< 100", "unit": "nM"}, {"measurement": "Kd", "setting": "[5]", "value": "< 100", "unit": "nM"}]}
